The values that follow come from US12679878B2, “CRF2 receptor agonists and their use in therapy” (SANOFI, priority 2020, dated 2026).

In brackets after ≈: the same amount, converted by molar mass. Read-outs that look alike come from different tables or passages of the source. Starred links: 1 amine or outer side, 2 acyl side, 3 side chain; linkers in the order of their positions; H or OH if unused. Non-standard residues stand in square brackets, D forms with d. Residues, ends and D or L forms follow the SMILES beside them. Groups on a side chain read outwards from the residue. *: point of attachment. C16 diacid = O=C(O)CCCCCCCCCCCCCCC(=O)*; γGlu = O=C(O)[C@H](CCC(=O)[*:2])N[*:1]

Series [1] is described as follows: Buffer solubility by LC-UV, pH 7.4 phosphate and pH 4.5 acetate (Example 19.11). The format is physicochemical. The note with it: target 10 mg/mL. The method, boiled down:
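Powders dissolved at a target 10 mg/mL in 100 mM phosphate pH 7.4 or 100 mM acetate pH 4.5, held 1 h at room temperature, then centrifuged. Diluted supernatant analysed by LC-UV; solubility from peak area against the same compound at 0.5 mg/ml in water:acetonitrile 1:1 with 0.1% formic acid.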

The nature of series [2]: In vitro plasma stability, rat plasma (Example 19.11). Format: in vitro ADME, Sprague Dawley rats. Details: remaining at 2 h: dose or concentration left out as unconfirmed. To be noted: male, Sprague Dawley, rat, plasma, 37° C. The procedure:
(§1) In vitro plasma metabolic stability was studied in male Sprague Dawley rats and human. Test compound were incubated […] for 2 hours at 37° C. At each time point (0, 0.25, 1 and 2 h), samples were prepared for analysis by means of a single step protein precipitation technique by adding 150 μL of ethanol, 0.1% formic acid to 50 μL aliquots of plasma. Samples were mixed by vortex for homogeneity and then subjected to centrifugation at 14000 rpm for 15 min. The supernatant (100 μL) was collected, diluted with 100 μL of water, 0.1% formic acid and analyzed by LC-HRMS (TripleTOF 6600+, AB Sciex). For each test compound, the area ratios at each time point were compared to the 0 h area ratio and converted to a percentage remaining.

Another series deals with T1, CRF1R receptor (Homo sapiens, UniProt P34998).
T1 construct: host or cells: CHO-K1 clone 2
T1 sequence (P34998 24-415): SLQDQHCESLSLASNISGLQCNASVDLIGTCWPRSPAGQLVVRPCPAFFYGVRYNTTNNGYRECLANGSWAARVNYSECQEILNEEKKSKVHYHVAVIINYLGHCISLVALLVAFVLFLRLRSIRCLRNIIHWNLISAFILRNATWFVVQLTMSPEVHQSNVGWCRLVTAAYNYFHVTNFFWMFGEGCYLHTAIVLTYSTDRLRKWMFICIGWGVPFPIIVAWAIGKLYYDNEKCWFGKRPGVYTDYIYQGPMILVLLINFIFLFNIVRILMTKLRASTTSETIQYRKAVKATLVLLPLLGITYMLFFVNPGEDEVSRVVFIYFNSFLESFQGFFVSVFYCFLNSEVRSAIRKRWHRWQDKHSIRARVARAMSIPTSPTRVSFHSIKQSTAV
Briefly: cAMP activity at anti-target CRF1R, CHO-K1 cell line clone 2 (Example 19.10). Format: cell-based. The note with it: for Emax: 100% = Sauvagine at 100 nM; for CRF1/CRF2 ratio: ratio of CRF1 EC50 to CRF2 EC50. The procedure, abridged:
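The cAMP read-out used the same protocol as the previous assay, except that Sauvagine at 100 nM set the 100% activation control. Cells were CHO-K1 clone 2 overexpressing CRF1R, cultured in F12 medium with 10% FBS and G418 and stored frozen until use.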

Series [3] is described as follows: Chemical stability as % loss by LC-UV, 28 days 40° C. vs 5° C. (Example 19.11). The format is physicochemical. The procedure: As for example 15 above, also the chemical stability of representative examples of these FA modified peptides has been assessed, using LC-UV instead of light scattering. Solubility and chemical stability were studied in 100 mM phosphate buffer (pH 7.4) and 100 mM acetate buffer (pH 4.5). Test compound powders were dissolved in both buffers at a target concentration of 10 mg/mL and incubated for 1 hour at room temperature. After centrifugation at 2500 rcf for 15 minutes, […] of supernatant was diluted with […] of the incubation buffer and analyzed by LC-UV (Acquity UPLC-DAD, Waters). Solubility was calculated by comparing the peak area of the test compound in the buffer sample with the peak area of the same compound dissolved at 0.5 mg/ml in water:acetonitrile 1:1, 0.1% formic acid.
From the centrifuged supernatant, two additional […] aliquots were collected and diluted with […] of incubation buffer. One aliquot was stored at 5° C., while the other was stored at 40° C. After 28 days, the samples were analyzed by LC-UV. Chemical stability was calculated as % loss using the following equations: • Chemical stability (as % loss)=[(purity after 28 days at 5° C.)−(purity after 28 days at 40° C.)]×100/(purity after 28 days at 5° C.) % purity=[(peak area compound)×100/(total peak area)]

Series [4] in a line: In vitro plasma stability, human plasma (Example 19.11). Format: in vitro ADME. Details: dose or concentration left out as unconfirmed. To be noted: 37° C. The procedure: as §1
For the next series, the target named is T2, human CRF2α receptor (Homo sapiens, UniProt Q13324).
T2 construct: expressed in transfected cells; host or cells: TeloHEAC
T2 sequence (Q13324 1-411): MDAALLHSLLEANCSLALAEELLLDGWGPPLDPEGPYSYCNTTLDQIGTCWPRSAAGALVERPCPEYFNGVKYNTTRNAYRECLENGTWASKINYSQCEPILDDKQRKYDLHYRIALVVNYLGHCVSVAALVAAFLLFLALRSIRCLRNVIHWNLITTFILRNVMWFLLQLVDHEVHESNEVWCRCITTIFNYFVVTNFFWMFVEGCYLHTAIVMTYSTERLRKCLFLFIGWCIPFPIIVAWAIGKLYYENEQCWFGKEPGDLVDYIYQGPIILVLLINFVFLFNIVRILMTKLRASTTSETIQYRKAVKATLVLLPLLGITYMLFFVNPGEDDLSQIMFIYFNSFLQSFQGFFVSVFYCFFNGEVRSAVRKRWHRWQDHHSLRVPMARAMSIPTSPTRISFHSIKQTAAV
Briefly: cAMP agonism at human CRF2α receptor in TeloHEAC cells, FA modified peptides (Example 19.9). Format: cell-based. The note with it: 0% HSA, relative to urocortin 2. The method, boiled down: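 Efficacy and EC50 are referenced to 100 nM urocortin 2 as 100%, with cAMP measured as the 665/620 nm HTRF ratio after 1 h at room temperature. Compounds (0.5 mM DMSO stock, 16 twofold dilutions) acted 30 min at 37 °C on CRF2α-expressing TeloHEAC cells, buffer containing IBMX and 0% or 0.2% HSA.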

Setting [5] is: pH 7.4, 100 mM phosphate buffer.
[6] abbreviates: 0% HSA, CRF1R CHO-K1 clone 2, read-out: EC50 [nM] 0% HSA.

Take `CC[C@H](C)[C@H](N)C(=O)N[C@H](C(=O)N[C@@H](CC(C)C)C(=O)N[C@@H](CO)C(=O)N[C@@H](CC(C)C)C(=O)N[C@@H](CC(=O)O)C(=O)N[C@@H](C(=O)N1CCC[C@H]1C(=O)N[C@H](C(=O)N[C@@H](CCCCN)C(=O)N[C@@H](CC(C)C)C(=O)N[C@@H](CCCCNC(=O)CC[C@H](NC(=O)CCCCCCCCCCCCCCC(=O)O)C(=O)O)C(=O)N[C@@H](CCC(N)=O)C(=O)N[C@H](C(=O)N[C@@H](CC(C)C)C(=O)N[C@@H](CC(C)C)C(=O)N[C@@H](CCCCN)C(=O)N[C@@H](CCC(N)=O)C(=O)N[C@@H](CCC(=O)O)C(=O)N[C@@H](CCCNC(=N)N)C(=O)N[C@@H](CCC(N)=O)C(=O)N[C@@H](CCCCN)C(=O)N[C@@H](CCCCN)C(=O)N[C@@H](CCC(N)=O)C(=O)N[C@@H](CCCNC(=N)N)C(=O)N[C@@H](CCC(=O)O)C(=O)N[C@@H](CCC(N)=O)C(=O)N[C@@H](C)C(=O)N[C@@H](CCC(=O)O)C(=O)N[C@@H](CCCCN)C(=O)N[C@@H](CC(N)=O)C(=O)N[C@@H](CCCCN)C(=O)N[C@@H](CCC(N)=O)C(=O)N[C@H](C(=O)N[C@@H](CC(C)C)C(=O)N[C@@H](CCC(=O)O)C(=O)N[C@@H](CCC(N)=O)C(=O)N[C@H](C(N)=O)C(C)C)[C@@H](C)CC)[C@@H](C)CC)[C@@H](C)CC)C(C)C)C(C)C` [compound 190] (H-IVLSLD[dV]PIKLK([γGlu-C16 diacid])QILLKQERQKKQREQAEKNKQILEQV-NH2; N-terminus assumed): the solubility at 1 h in series [1] (pH 4.5, 100 mM acetate buffer) came out at 8500 µg/mL (≈ 1720 µM); in series [1] (setting [5]), 8500 µg/mL (≈ 1720 µM). In addition, the amount remaining at 2 h in series [2] worked out at 92%; in series [4], 100%. Besides, the EC50 is over 100 nM on CRF1R receptor (setting [6]); over 100 nM at CRF1R receptor (Table 20 side-to-side comparison, read-out: CRF1 EC50); 2.47 nM at human CRF2α receptor. The same compound registered an Emax at CRF1R receptor (CRF1R CHO-K1 clone 2) of 12%. In addition, the CRF1/CRF2 ratio on CRF1R receptor is over 500. Besides, the “% loss (chemical stability)” value is given as 0% in series [3] (pH 4.5) and 35% in series [3] (pH 7.4).

Consider `CC[C@H](C)[C@H](N)C(=O)N[C@H](C(=O)N[C@@H](CC(C)C)C(=O)N[C@@H](CO)C(=O)N[C@@H](CC(C)C)C(=O)N[C@@H](CC(=O)O)C(=O)N[C@@H](C(=O)N1CCC[C@H]1C(=O)N[C@H](C(=O)N[C@@H](CCCCN)C(=O)N[C@@H](CC(C)C)C(=O)N[C@@H](CCCCNC(=O)CC[C@H](NC(=O)CCCCCCCCCCCCCCC(=O)O)C(=O)O)C(=O)N[C@@H](CCC(N)=O)C(=O)N[C@H](C(=O)N[C@@H](CC(C)C)C(=O)N[C@@H](CC(C)C)C(=O)N[C@@H](CCCCN)C(=O)N[C@@H](CCC(N)=O)C(=O)N[C@@H](CCC(=O)O)C(=O)N[C@@H](CCCNC(=N)N)C(=O)N[C@@H](CCC(N)=O)C(=O)N[C@@H](CCCCN)C(=O)N[C@@H](CCCCN)C(=O)N[C@@H](CCC(N)=O)C(=O)N[C@@H](CCCNC(=N)N)C(=O)N[C@@H](CCC(=O)O)C(=O)N[C@@H](CCCCN)C(=O)N[C@@H](C)C(=O)N[C@@H](CCC(=O)O)C(=O)N[C@@H](CCCCN)C(=O)N[C@@H](CC(N)=O)C(=O)N[C@@H](CCCCN)C(=O)N[C@@H](CCC(N)=O)C(=O)N[C@H](C(=O)N[C@@H](CC(C)C)C(=O)N[C@@H](C)C(=O)N[C@@H](CCC(N)=O)C(=O)N[C@H](C(N)=O)C(C)C)[C@@H](C)CC)[C@@H](C)CC)[C@@H](C)CC)C(C)C)C(C)C` [compound 191] (H-IVLSLD[dV]PIKLK([γGlu-C16 diacid])QILLKQERQKKQREKAEKNKQILAQV-NH2), for which the solubility at 1 h in series [1] (pH 4.5, 100 mM acetate buffer) came to 8500 µg/mL (≈ 1740 µM); in series [1] (setting [5]), 9000 µg/mL (≈ 1840 µM). The fraction remaining at 2 h stood at 85% in series [2] and 96% in series [4]. Also, the EC50 is over 100 nM at CRF1R receptor (setting [6]) and 2.68 nM at human CRF2α receptor. The Emax at CRF1R receptor (CRF1R CHO-K1 clone 2) was determined as 12.5%. Also, the “% loss (chemical stability)” value in series [3] (pH 4.5) is 0%; in series [3] (pH 7.4) it was 54%.

Consider `CC[C@H](C)[C@H](N)C(=O)N[C@H](C(=O)N[C@@H](CC(C)C)C(=O)N[C@@H](CO)C(=O)N[C@@H](CC(C)C)C(=O)N[C@@H](CC(=O)O)C(=O)N[C@@H](C(=O)N1CCC[C@H]1C(=O)N[C@H](C(=O)N[C@@H](CCCCN)C(=O)N[C@@H](CC(C)C)C(=O)N[C@@H](CCCCNC(=O)CC[C@H](NC(=O)CCCCCCCCCCCCCCC(=O)O)C(=O)O)C(=O)N[C@@H](CCC(N)=O)C(=O)N[C@H](C(=O)N[C@@H](CC(C)C)C(=O)N[C@@H](CC(C)C)C(=O)N[C@@H](CCCCN)C(=O)N[C@@H](CCC(N)=O)C(=O)N[C@@H](CCC(=O)O)C(=O)N[C@@H](CCCNC(=N)N)C(=O)N[C@@H](CCC(N)=O)C(=O)N[C@@H](CCCCN)C(=O)N[C@@H](CCCCN)C(=O)N[C@@H](CCC(N)=O)C(=O)N[C@@H](CCCNC(=N)N)C(=O)N[C@@H](CCC(N)=O)C(=O)N[C@@H](CCC(N)=O)C(=O)N[C@@H](C)C(=O)N[C@@H](CCC(=O)O)C(=O)N[C@@H](CCCCN)C(=O)N[C@@H](CC(N)=O)C(=O)N[C@@H](CCCCN)C(=O)N[C@@H](CCC(N)=O)C(=O)N[C@H](C(=O)N[C@@H](CC(C)C)C(=O)N[C@@H](C)C(=O)N[C@@H](CCC(N)=O)C(=O)N[C@H](C(N)=O)C(C)C)[C@@H](C)CC)[C@@H](C)CC)[C@@H](C)CC)C(C)C)C(C)C` [compound 192] (H-IVLSLD[dV]PIKLK([γGlu-C16 diacid])QILLKQERQKKQRQQAEKNKQILAQV-NH2; N-terminus assumed), for which the solubility at 1 h in series [1] (pH 4.5, 100 mM acetate buffer) was 8400 µg/mL (≈ 1720 µM); in series [1] (setting [5]), 7900 µg/mL (≈ 1610 µM). In addition, the fraction remaining at 2 h in series [2] is 109%; in series [4], 95%. The CRF1/CRF2 ratio at CRF1R receptor worked out at 68. Also, the “% loss (chemical stability)” value in series [3] (pH 4.5) worked out at 0%; in series [3] (pH 7.4), 49%. The compound also returned an EC50 at human CRF2α receptor of 0.83 nM.
